Source: ChEMBL document CHEMBL1201862, “PubChem BioAssay data set” (2004)
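In this assay, cells in 96-well plates receive the compound at five concentrations for 48 hours. Endpoints are linearly interpolated between the surrounding concentrations. GI50 marks 50% less growth.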 Calls of active or inactive are those of the source. No stated cut-off is given here; in the data, active = GI50 up to about 1.1 µM and inactive = higher.

Tests used:
Assay in all cases: DTP human tumour cell line panel, 48 h
TK-10 = tested on: TK-10
M14 = tested on: M14
SR = tested on: SR
BT-549 = tested on: BT-549
RPMI-8226 = tested on: RPMI-8226
MCF7 = tested on: MCF7
NCI/ADR-RES = tested on: NCI/ADR-RES
Hs-578T = tested on: Hs-578T
A498 = tested on: A498
M19-MEL = tested on: M19-MEL
HOP-18 = tested on: HOP-18
KM-20L2 = tested on: KM-20L2
DLD-1 = tested on: DLD-1
SNB-78 = tested on: SNB-78
ACHN = tested on: ACHN
DMS-114 = tested on: DMS-114
OVCAR-3 = tested on: OVCAR-3
DMS-273 = tested on: DMS-273
XF498 = tested on: XF498
NCI-H522 = tested on: NCI-H522

Measured: GI50

C/C(=N\NC(=O)c1ccncc1)c1cccc(C(F)(F)F)c1
inactive: TK-10 > 10 µM | M14 > 10 µM | SR > 10 µM | BT-549 > 10 µM | RPMI-8226 > 10 µM | MCF7 6.9 µM | NCI/ADR-RES > 10 µM | Hs-578T 1.75 µM

Nc1nncc2c1ccn2C1OC(CO)C(O)C1O (centres undefined)
inactive: A498 > 100 µM | M19-MEL > 100 µM | TK-10 > 100 µM | M14 > 100 µM | SR > 100 µM | HOP-18 > 100 µM | KM-20L2 > 100 µM | DLD-1 > 100 µM | SNB-78 > 100 µM | ACHN > 100 µM | DMS-114 > 100 µM | RPMI-8226 > 100 µM | OVCAR-3 > 100 µM | DMS-273 > 100 µM

N=C(N)c1csc([C@@H]2O[C@H](CO)[C@@H](O)[C@H]2O)n1
inactive: M19-MEL > 100 µM | TK-10 > 100 µM | M14 > 100 µM | SR > 100 µM | HOP-18 59.7 µM | DLD-1 > 100 µM | SNB-78 > 100 µM | ACHN > 100 µM | RPMI-8226 > 100 µM | XF498 > 100 µM | DMS-273 > 100 µM

O=S(=O)(/N=C(\NO)Nc1ccc(Cl)cc1)c1ccc(-c2ccccn2)s1
inactive: TK-10 61.5 µM | M14 56.1 µM | SR > 100 µM | NCI-H522 11.5 µM | BT-549 19.6 µM | ACHN 35.6 µM | OVCAR-3 4.03 µM | NCI/ADR-RES 30.9 µM | Hs-578T 28.8 µM

CN(C)CCNC(=O)c1cccc2c1Nc1ccccc1S2
inactive: A498 10.6 µM | M19-MEL 15.6 µM | HOP-18 11.9 µM | KM-20L2 16.2 µM | DLD-1 15.6 µM | SNB-78 12.2 µM | DMS-114 6.76 µM | RPMI-8226 9.57 µM | OVCAR-3 14.5 µM | MCF7 13 µM | NCI/ADR-RES 16.2 µM | XF498 12.6 µM | DMS-273 13.7 µM

C=CNC(=S)n1nc(-c2ccccc2NC(=O)C(F)(F)F)c(=O)n(C(=S)NC=C)c1=S
inactive: M19-MEL 31.8 µM | TK-10 > 100 µM | M14 34.6 µM | SR 16.4 µM | NCI-H522 11.2 µM | DLD-1 16.7 µM | SNB-78 51.1 µM | ACHN 24.4 µM | DMS-114 12.3 µM | OVCAR-3 13.3 µM | XF498 30.2 µM | DMS-273 26.8 µM

CCOC(=O)NC(=O)c1cn(C2CCCCC2)c(=O)n(C)c1=O
inactive: A498 > 100 µM | M19-MEL > 100 µM | TK-10 > 100 µM | M14 > 100 µM | SR > 100 µM | HOP-18 > 100 µM | KM-20L2 > 100 µM | NCI-H522 > 100 µM | DLD-1 > 100 µM | SNB-78 > 100 µM | ACHN > 100 µM | DMS-114 > 100 µM | RPMI-8226 > 100 µM | OVCAR-3 > 100 µM | DMS-273 > 100 µM

CC1=NN(C(=O)c2ccccc2)C(=O)C1/N=N/c1ccccc1C(=O)O (centres undefined)
inactive: A498 5.47 µM | M19-MEL 5.92 µM | HOP-18 99.1 µM | KM-20L2 63.1 µM | NCI-H522 8.05 µM | DLD-1 6.89 µM | DMS-114 4.08 µM | RPMI-8226 4.36 µM | OVCAR-3 4.71 µM | MCF7 3.86 µM | NCI/ADR-RES 4.76 µM | XF498 2.72 µM | DMS-273 3.05 µM

CCOC(=O)/C=C(\C)c1ccc(C)cc1C
inactive: A498 > 100 µM | TK-10 33.8 µM | M14 > 100 µM | SR 4.46 µM | HOP-18 45 µM | KM-20L2 > 100 µM | DLD-1 15.7 µM | SNB-78 38.1 µM | ACHN > 100 µM | DMS-114 > 100 µM | RPMI-8226 7.28 µM | XF498 23.4 µM | DMS-273 > 100 µM

CNC(=O)OCc1nc(SC)n(C)c1CO
inactive: A498 > 100 µM | M19-MEL > 100 µM | HOP-18 > 79.3 µM | KM-20L2 > 100 µM | NCI-H522 > 100 µM | DLD-1 > 100 µM | SNB-78 > 100 µM | DMS-114 > 100 µM | RPMI-8226 > 100 µM | OVCAR-3 > 100 µM | MCF7 > 100 µM | NCI/ADR-RES > 100 µM | XF498 > 100 µM | DMS-273 > 100 µM

Cc1c(-c2cc3n(n2)C(c2cccs2)C(C#N)=C(c2ccccc2)N3)c(=O)n(-c2ccccc2)n1C (centres undefined)
inactive: A498 82.8 µM | M19-MEL > 100 µM | HOP-18 > 100 µM | KM-20L2 24.9 µM | NCI-H522 63.2 µM | DLD-1 > 100 µM | SNB-78 > 100 µM | DMS-114 77.3 µM | OVCAR-3 > 100 µM | MCF7 > 86.5 µM | NCI/ADR-RES > 86.3 µM | XF498 > 79.4 µM | DMS-273 > 91.6 µM

O=C1CC2(CCC(O)(c3ccccc3)C(C(=O)c3ccccc3)C2)C(=O)c2ccccc2N1 (centres undefined)
inactive: A498 > 100 µM | TK-10 > 100 µM | M14 > 100 µM | SR > 100 µM | BT-549 > 100 µM | OVCAR-3 > 100 µM | MCF7 > 100 µM | NCI/ADR-RES > 100 µM | Hs-578T > 100 µM

Cc1c2cc[n+](C)cc2c(COC2OC(CO)C(O)C2O)c2c3ccccc3n(C)c12 (centres undefined)
inactive: A498 > 100 µM | M19-MEL 65.5 µM | HOP-18 27.5 µM | KM-20L2 31.6 µM | NCI-H522 63.1 µM | DLD-1 > 100 µM | SNB-78 83.9 µM | DMS-114 46.3 µM | RPMI-8226 99.5 µM | OVCAR-3 > 100 µM | MCF7 > 100 µM | NCI/ADR-RES > 97.7 µM | XF498 50.7 µM | DMS-273 > 89.9 µM

COc1ccc(C2c3cc4c(cc3OC(Nc3ccccc3)C2C)OCO4)cc1 (centres undefined)
inactive: A498 58.6 µM | TK-10 91.6 µM | M14 85.9 µM | SR 2.42 µM | NCI-H522 12.1 µM | BT-549 68.1 µM | ACHN 21.8 µM | RPMI-8226 26 µM | OVCAR-3 53.1 µM | MCF7 23.6 µM | Hs-578T > 100 µM
